Our source for the IC50 values is ChEMBL document CHEMBL1147897, “Synthesis of enantiomerically pure milnacipran analogs and inhibition of dopamine, serotonin, and norepinephrine transporters” (Bioorg Med Chem Lett, 2007).

“And” between values parts separate entries of the source, which are not always exact repeats. Equal values may be shown once.

Common to all, as to format: functional, subcellular, Brain
For assay [1], the target named is Sodium-dependent serotonin transporter (Rattus norvegicus, UniProt P31652). The assay can be described thus: Inhibition of [3H]5-HT uptake at 5HT transporter in Wistar rat synaptosomes.
For assay [2], the target named is Sodium-dependent dopamine transporter (Rattus norvegicus, UniProt P23977). Briefly: Inhibition of [3H]5-HT uptake at DA transporter in Wistar rat synaptosomes.
Assay [3] concerns the target Norepinephrine transporter (Rattus norvegicus, UniProt Q9WTR4). Briefly: Inhibition of [3H]5-HT uptake at NE transporter in Wistar rat synaptosomes.

One may read the IC50 as the midpoint of a concentration-inhibition curve.

Chain of Sodium-dependent dopamine transporter (P23977 whole entry): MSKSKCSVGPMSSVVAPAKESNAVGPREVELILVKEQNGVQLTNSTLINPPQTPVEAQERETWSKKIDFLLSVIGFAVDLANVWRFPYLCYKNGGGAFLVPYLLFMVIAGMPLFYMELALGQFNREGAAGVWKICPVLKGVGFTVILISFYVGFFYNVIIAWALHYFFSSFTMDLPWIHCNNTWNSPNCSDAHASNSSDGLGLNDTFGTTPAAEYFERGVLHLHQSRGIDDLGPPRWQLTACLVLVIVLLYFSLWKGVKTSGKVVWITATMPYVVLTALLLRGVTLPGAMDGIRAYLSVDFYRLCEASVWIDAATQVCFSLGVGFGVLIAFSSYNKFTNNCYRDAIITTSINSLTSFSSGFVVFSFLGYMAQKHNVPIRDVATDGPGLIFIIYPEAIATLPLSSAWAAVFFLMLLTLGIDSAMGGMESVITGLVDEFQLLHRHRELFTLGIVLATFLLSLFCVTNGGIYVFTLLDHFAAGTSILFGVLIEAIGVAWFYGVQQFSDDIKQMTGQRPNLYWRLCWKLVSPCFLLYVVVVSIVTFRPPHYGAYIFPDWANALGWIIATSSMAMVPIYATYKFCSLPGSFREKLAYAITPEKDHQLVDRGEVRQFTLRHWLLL
Chain of Norepinephrine transporter (Q9WTR4 whole entry): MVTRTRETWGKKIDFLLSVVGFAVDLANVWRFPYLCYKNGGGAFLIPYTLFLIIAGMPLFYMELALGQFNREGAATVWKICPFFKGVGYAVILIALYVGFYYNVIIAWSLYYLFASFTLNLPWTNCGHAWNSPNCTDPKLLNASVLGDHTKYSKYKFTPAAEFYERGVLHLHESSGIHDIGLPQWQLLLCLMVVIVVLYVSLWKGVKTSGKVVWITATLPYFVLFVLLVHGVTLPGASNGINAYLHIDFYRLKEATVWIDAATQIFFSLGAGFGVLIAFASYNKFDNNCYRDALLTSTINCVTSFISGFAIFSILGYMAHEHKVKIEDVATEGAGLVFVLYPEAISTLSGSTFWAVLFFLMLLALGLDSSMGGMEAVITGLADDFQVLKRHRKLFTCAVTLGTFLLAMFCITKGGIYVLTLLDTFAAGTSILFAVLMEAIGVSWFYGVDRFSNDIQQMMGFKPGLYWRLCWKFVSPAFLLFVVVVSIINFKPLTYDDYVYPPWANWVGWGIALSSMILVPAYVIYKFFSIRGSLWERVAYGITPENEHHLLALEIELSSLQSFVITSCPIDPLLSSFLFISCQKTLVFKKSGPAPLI
Chain of Sodium-dependent serotonin transporter (P31652 whole entry): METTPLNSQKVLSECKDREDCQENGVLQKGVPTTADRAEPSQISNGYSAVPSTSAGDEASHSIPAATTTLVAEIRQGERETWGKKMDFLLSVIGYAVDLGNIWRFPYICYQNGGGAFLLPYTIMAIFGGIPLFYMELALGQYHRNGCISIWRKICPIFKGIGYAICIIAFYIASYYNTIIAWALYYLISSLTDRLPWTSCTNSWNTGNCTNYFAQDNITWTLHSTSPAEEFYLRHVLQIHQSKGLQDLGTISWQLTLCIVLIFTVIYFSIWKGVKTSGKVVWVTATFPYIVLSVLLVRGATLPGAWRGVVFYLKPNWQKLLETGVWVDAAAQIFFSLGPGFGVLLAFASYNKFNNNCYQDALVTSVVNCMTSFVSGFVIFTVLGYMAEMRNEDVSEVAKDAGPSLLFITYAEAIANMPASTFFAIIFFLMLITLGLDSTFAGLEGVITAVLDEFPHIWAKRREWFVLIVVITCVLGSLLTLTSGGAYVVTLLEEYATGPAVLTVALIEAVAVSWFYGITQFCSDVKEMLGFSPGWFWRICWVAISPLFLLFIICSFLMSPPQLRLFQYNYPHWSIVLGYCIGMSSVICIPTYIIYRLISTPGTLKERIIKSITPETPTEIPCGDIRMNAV

For the molecule `CCN(CC)C(=O)[C@]1(c2ccc(Cl)c(Cl)c2)C[C@@H]1CN`, the IC50 came to 84 nM in assay [1], 540 nM in assay [2] and 10 nM in assay [3].
In the same order, the values of `CCN(CC)C(=O)[C@]1(c2ccc3ccccc3c2)C[C@@H]1CN` are 18 nM, 140 nM and 5 nM.
In the same order, the values of `CCN(CC)C(=O)[C@@]1(c2ccc3ccccc3c2)C[C@H]1CN` are 130 nM, 1400 nM and 29 nM.
`CCN(CC)C(=O)[C@@]1(c2ccc(Cl)cc2)C[C@H]1CN`: half-maximal inhibition in assay [1] (IC50) was put at 790 nM.
Turning to `CCN(CC)C(=O)[C@]1(c2ccsc2)C[C@@H]1CN`, the half-inhibitory concentration (IC50) in assay [1] was found to be 250 nM; in assay [3], 410 nM.
Turning to `CCN(CC)C(=O)[C@@]1(c2cccc(Cl)c2)C[C@H]1CN`, the 50% inhibitory concentration (IC50) turned out to be 86 nM in assay [1], 9000 nM in assay [2] and 33 nM in assay [3].
For `CCN(CC)C(=O)[C@@]1(c2ccc(OC)cc2)C[C@H]1CN`, the figures for the IC50 in assay [1] and in assay [3] were 510 nM and 35 nM, respectively.
Consider `CCN(CC)C(=O)[C@]1(c2cccs2)C[C@@H]1CN`, for which the IC50 in assay [1] was 250 nM and 520 nM.
With `CCN(CC)C(=O)[C@@]1(c2ccsc2)C[C@H]1CN`, the 50% inhibitory concentration (IC50) in assay [1] came out at 190 nM; in assay [2] it was 10000 nM; in assay [3], 19 nM.
For `CCN(CC)C(=O)[C@@]1(c2ccc(Cl)c(Cl)c2)C[C@H]1CN`, in that order: 440 nM, 1700 nM and 26 nM.
In the same order, the values of `CCN(CC)C(=O)[C@]1(c2ccc(F)cc2)C[C@@H]1CN` are 320 nM, 10000 nM and 500 nM.
In the same order, the values of `CCN(CC)C(=O)[C@@]1(c2cccc3ccccc23)C[C@H]1CN` are 7100 nM, 10000 nM and 370 nM.
Turning to `CCN(CC)C(=O)[C@@]1(c2ccc(F)cc2)C[C@H]1CN`, the IC50 is 210 nM in assay [1] and 63 nM in assay [3].
With `CCN(CC)C(=O)[C@]1(c2cccc(Cl)c2)C[C@@H]1CN`, the IC50 in assay [1] was determined as 170 nM; in assay [3], 38 nM.
Take `CCN(CC)C(=O)[C@]1(c2cccc3ccccc23)C[C@@H]1CN`: the results for the IC50 in assay [1], in assay [2] and in assay [3] were 1200 nM, 5300 nM and 200 nM, respectively.
For the molecule `CCN(CC)C(=O)[C@]1(c2ccc(OC)cc2)C[C@@H]1CN`, the results for the IC50 in assay [1] and in assay [3] were 230 nM and 140 nM, respectively.
Take `CCN(CC)C(=O)[C@]1(c2ccc(Cl)cc2)C[C@@H]1CN`: the IC50 in assay [1] amounted to 190 nM; in assay [2], 3700 nM.
